In brackets after ≈: the same amount, converted by molar mass.
Legend:
Assay type in all cases: cell-based
Sarcina lutea ATCC 9341 = assay: antimicrobial activity, broth dilution method; settings: Micrococcus luteus, ATCC9341, Sarcina lutea ATCC 9341, read-out: minimum inhibitory concentration (MIC)
Method: (§1) Antimicrobial activity of the new antibiotics according to the present invention was measured on various pathogenic microorganisms by the broth dilution mehtod. Tab. […] The new antibiotics show a similar antimicrobial spectrum to that of tylosin as shown in Tab. 4. All the compounds have an excellent antimicrobial activity mainly on gram-positive bacteria. […] Test microorganisms with an asterisk mark (*) in Tab. 4 are all drug-resistant strains that were clinically isolated. More in detail, Staphylococcus aureus MS-8710 is resistant to tylosin, penicillin, tetracycline, erythromycin and leucomycin. Staphylococcus aureus MS-9931 is resistant to tylosin, penicillin, erythromycin, tetracycline, leucomycin, spiramycin and josamycin. And also Streptococcus piogenes is resistant to tylosin, erythromycin, oleandomycin and leucomycin.

[1] = tested on: Staphylococcus aureus SMITH; assay: antimicrobial activity, broth dilution method; settings: Staphylococcus aureus, Staphylococcus aureus SMITH; broth dilution; read-out: minimum inhibitory concentration (MIC)
Method: as §1

[2] = tested on: Staphylococcus aureus MS-8710; assay: antimicrobial activity, broth dilution method; settings: Staphylococcus aureus, MS8710, Staphylococcus aureus MS-8710, drug-resistant clinical isolate; read-out: minimum inhibitory concentration (MIC)
Method: as §1

[3] = tested on: Bacillus cereus ATCC 9634; assay: antimicrobial activity, broth dilution method; settings: Bacillus cereus, ATCC9634, Bacillus cereus ATCC 9634; broth dilution; read-out: minimum inhibitory concentration (MIC)
Method: as §1

[4] = tested on: Staphylococcus aureus MS-9937; assay: antimicrobial activity, broth dilution method; settings: MS9937; Staphylococcus aureus MS-9937, drug-resistant clinical isolate; read-out: minimum inhibitory concentration (MIC)
Method: as §1

[5] = tested on: Streptococcus pyogenes MH-771; assay: antimicrobial activity, broth dilution method; settings: Streptococcus pyogenes, MH771, Streptococcus pyogenes MH-771, drug-resistant clinical isolate; read-out: minimum inhibitory concentration (MIC)
Method: as §1

[6] = tested on: Staphylococcus aureus MS-9931; assay: antimicrobial activity, broth dilution method; settings: MS9931; Staphylococcus aureus MS-9931, drug-resistant clinical isolate; read-out: minimum inhibitory concentration (MIC)
Method: as §1

[7] = tested on: Staphylococcus aureus FDA-209P; assay: antimicrobial activity, broth dilution method; settings: Staphylococcus aureus, FDA209P, Staphylococcus aureus FDA-209P; broth dilution; read-out: minimum inhibitory concentration (MIC)
Method: as §1

[8] = tested on: Mycoplasma gallisepticum KP-13; assay: antibacterial activity against Mycoplasma; settings: Mycoplasmoides gallisepticum, KP13; strain KP-13; Eiken PPLO Medium; read-out: MIC
From the text: (§2) Furthermore the new antibiotics according to the present invention also show antimicrobial activity on Mycoplasma. In particular, it is noteworthy that they have much higher antimicrobial activity than tylosin on Mycoplasma that is resistant to macrolide antibiotics. Tab.
(§3) **Medium (Eiken PPLO Medium)

[9] = tested on: Mycoplasma gallisepticum A-72; assay: antibacterial activity against Mycoplasma; settings: Mycoplasmoides gallisepticum, A72; strain A-72, macrolide resistant; Eiken PPLO Medium
From the text: as §2
(§4) *Macrolide resistant strain
as §3

[10] = tested on: Mycoplasma gallisepticum E-11; assay: antibacterial activity against Mycoplasma; settings: Mycoplasmoides gallisepticum, E11; strain E-11, macrolide resistant; Eiken PPLO Medium; read-out: MIC
From the text: as §2, §4, §3

[11] = tested on: Mycoplasma gallisepticum E-5; assay: antibacterial activity against Mycoplasma; settings: Mycoplasmoides gallisepticum, E5; strain E-5, macrolide resistant; Eiken PPLO Medium; read-out: MIC
From the text: as §2, §4, §3

SMILES | MIC (Sarcina lutea ATCC 9341) [µg/mL] | MIC [1] [µg/mL] | MIC [2] [µg/mL] | MIC [3] [µg/mL] | MIC [4] [µg/mL] | MIC [5] [µg/mL] | MIC [6] [µg/mL] | MIC [7] [µg/mL] | MIC [8] [µg/mL] | MIC [9] [µg/mL] | MIC [10] [µg/mL] | MIC [11] [µg/mL]
CCCCCC(=O)OC1C(C)OC(OC2C(C)OC(OC3C(CC=O)CC(C)C(=O)C=CC(C)=CC(COC4OC(C)C(O)C(OC)C4OC)C(CC)OC(=O)CC(OC(C)=O)C3C)C(O)C2N(C)C)CC1(C)O (centres unmarked) [Compound 8, 3-acetyl-4"-n-caproyl(or n-hexanoyl)tylosin] | 0.39 (≈ 0.369 µM) | 0.78 (≈ 0.738 µM) | 25 (≈ 23.7 µM) | 0.78 (≈ 0.738 µM) | 25 (≈ 23.7 µM) | 6.25 (≈ 5.92 µM) | 25 (≈ 23.7 µM) | 0.39 (≈ 0.369 µM) |  |  |  | 
CCC(=O)OC1C(OC2C(CC=O)CC(C)C(=O)C=CC(C)=CC(COC3OC(C)C(O)C(OC)C3OC)C(CC)OC(=O)CC(O)C2C)OC(C)C(OC2CC(C)(O)C(O)C(C)O2)C1N(C)C (centres unmarked) [2'-propionyltylosin, reference compound] | 0.39 (≈ 0.401 µM) | 1.56 (≈ 1.6 µM) | > 200 | 1.56 (≈ 1.6 µM) | 200 (≈ 206 µM) | > 200 | 200 (≈ 206 µM) | 1.56 (≈ 1.6 µM) |  |  |  | 
CCC1OC(=O)CC(OC(C)=O)C(C)C(OC2OC(C)C(OC3CC(C)(O)C(OC(=O)C(O)Cc4ccccc4)C(C)O3)C(N(C)C)C2O)C(CC=O)CC(C)C(=O)C=CC(C)=CC1COC1OC(C)C(O)C(OC)C1OC [Compound 26, 3-acetyl-4"-L-[(α-hydroxy-β-phenyl)propionyl]tylosin] | 0.39 (≈ 0.353 µM) | 0.78 (≈ 0.705 µM) | 50 (≈ 45.2 µM) | 0.78 (≈ 0.705 µM) | 50 (≈ 45.2 µM) | 12.5 (≈ 11.3 µM) | 50 (≈ 45.2 µM) | 0.78 (≈ 0.705 µM) |  |  |  | 
CCC1OC(=O)CC(OC(C)=O)C(C)C(OC2OC(C)C(OC3CC(C)(O)C(OC(=O)CSCc4ccccc4)C(C)O3)C(N(C)C)C2O)C(CC=O)CC(C)C(=O)C=CC(C)=CC1COC1OC(C)C(O)C(OC)C1OC (centres unmarked) [Compound 38, 3-acetyl-4"-benzylthioacetyltylosin] | 0.39 (≈ 0.347 µM) | 0.78 (≈ 0.695 µM) | 12.5 (≈ 11.1 µM) | 1.56 (≈ 1.39 µM) | 12.5 (≈ 11.1 µM) | 6.25 (≈ 5.57 µM) | 12.5 (≈ 11.1 µM) | 0.78 (≈ 0.695 µM) | 0.019 (≈ 0.0169 µM) | 0.078 (≈ 0.0695 µM) | 0.078 (≈ 0.0695 µM) | 0.078 (≈ 0.0695 µM)

These reach a lower MIC (Sarcina lutea ATCC 9341). Values come first.

MIC (Sarcina lutea ATCC 9341) [µg/mL] | MIC [1] [µg/mL] | MIC [2] [µg/mL] | MIC [3] [µg/mL] | MIC [4] [µg/mL] | MIC [5] [µg/mL] | MIC [6] [µg/mL] | MIC [7] [µg/mL] | SMILES | MIC [8] [µg/mL] | MIC [9] [µg/mL] | MIC [10] [µg/mL] | MIC [11] [µg/mL]
0.19 (≈ 0.173 µM) | 0.78 (≈ 0.709 µM) | 25 (≈ 22.7 µM) | 0.78 (≈ 0.709 µM) | 25 (≈ 22.7 µM) | 12.5 (≈ 11.4 µM) | 25 (≈ 22.7 µM) | 0.78 (≈ 0.709 µM) | CCC1OC(=O)CC(O)C(C)C(OC2OC(C)C(OC3CC(C)(O)C(OC(=O)COc4ccc5ccccc5c4)C(C)O3)C(N(C)C)C2O)C(CC=O)CC(C)C(=O)C=CC(C)=CC1COC1OC(C)C(O)C(OC)C1OC (stereo not drawn) [Compound 47, 4"-β-napthoxyacetyltylosin] |  |  |  | 
0.19 (≈ 0.174 µM) | 0.39 (≈ 0.357 µM) | 100 (≈ 91.6 µM) | 0.39 (≈ 0.357 µM) | 25 (≈ 22.9 µM) | 12.5 (≈ 11.4 µM) | 25 (≈ 22.9 µM) | 0.39 (≈ 0.357 µM) | CCC1OC(=O)CC(OC(C)=O)C(C)C(OC2OC(C)C(OC3CC(C)(O)C(OC(=O)COc4ccccc4)C(C)O3)C(N(C)C)C2O)C(CC=O)CC(C)C(=O)C=CC(C)=CC1COC1OC(C)C(O)C(OC)C1OC (centres unmarked) [Compound 45, 3-acetyl-4"-phenoxyacetyltylosin] |  |  |  | 
0.19 (≈ 0.179 µM) | 0.39 (≈ 0.366 µM) | 25 (≈ 23.5 µM) | 0.39 (≈ 0.366 µM) | 50 (≈ 47 µM) | 12.5 (≈ 11.7 µM) | 25 (≈ 23.5 µM) | 0.78 (≈ 0.733 µM) | CCC1OC(=O)CC(O)C(C)C(OC2OC(C)C(OC3CC(C)(O)C(OC(=O)C(C)Oc4ccccc4)C(C)O3)C(N(C)C)C2O)C(CC=O)CC(C)C(=O)C=CC(C)=CC1COC1OC(C)C(O)C(OC)C1OC (stereo not drawn) [Compound 46, 4"-α-phenoxypropionyltylosin] |  |  |  | 
0.19 (≈ 0.171 µM) | 0.39 (≈ 0.352 µM) | 6.25 (≈ 5.63 µM) | 0.39 (≈ 0.352 µM) | 6.25 (≈ 5.63 µM) | 3.13 (≈ 2.82 µM) | 12.5 (≈ 11.3 µM) | 0.39 (≈ 0.352 µM) | CCC1OC(=O)CC(OC(C)=O)C(C)C(OC2OC(C)C(OC3CC(C)(O)C(OC(=O)CSc4ccncc4)C(C)O3)C(N(C)C)C2O)C(CC=O)CC(C)C(=O)C=CC(C)=CC1COC1OC(C)C(O)C(OC)C1OC (centres unmarked) [Compound 42, 3-acetyl-4"-(4-pyridyl)thioacetyltylosin] |  |  |  | 

— US4205163A, “Tylosin derivatives” (Sanraku-Ocean Co., Ltd., priority 1977, dated 1980)
